The values that follow come from patent publication US11014941B2, “Pyrrolopyrimidine derivatives useful as inhibitors of influenza virus replication” (priority 2017, dated 2021).

In this experiment the target is Influenza PB2 (Influenza A virus, UniProt P03428). Put plainly: biochemical. The format is binding. The settings on record: read-out: Influenza PB2 affinity, IC50.
Chain of Influenza PB2 (P03428 whole entry, looked up): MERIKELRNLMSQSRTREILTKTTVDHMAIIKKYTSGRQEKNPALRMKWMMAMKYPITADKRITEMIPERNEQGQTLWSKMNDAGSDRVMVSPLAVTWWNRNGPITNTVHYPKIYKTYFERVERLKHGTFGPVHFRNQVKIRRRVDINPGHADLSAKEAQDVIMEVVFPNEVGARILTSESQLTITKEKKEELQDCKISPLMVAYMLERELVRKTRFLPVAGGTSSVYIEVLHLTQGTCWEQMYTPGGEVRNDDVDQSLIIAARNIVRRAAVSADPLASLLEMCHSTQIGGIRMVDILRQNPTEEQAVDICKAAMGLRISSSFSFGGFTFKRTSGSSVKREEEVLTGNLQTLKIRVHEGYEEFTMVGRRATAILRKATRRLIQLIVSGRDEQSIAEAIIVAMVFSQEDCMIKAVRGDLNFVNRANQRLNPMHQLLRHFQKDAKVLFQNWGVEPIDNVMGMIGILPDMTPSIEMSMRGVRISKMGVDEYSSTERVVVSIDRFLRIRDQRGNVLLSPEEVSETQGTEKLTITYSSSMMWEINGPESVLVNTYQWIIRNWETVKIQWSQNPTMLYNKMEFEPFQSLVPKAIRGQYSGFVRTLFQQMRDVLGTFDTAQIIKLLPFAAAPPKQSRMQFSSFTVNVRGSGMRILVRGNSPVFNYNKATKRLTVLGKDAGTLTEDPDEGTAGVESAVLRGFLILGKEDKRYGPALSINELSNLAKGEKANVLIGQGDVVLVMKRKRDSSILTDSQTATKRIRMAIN
With `CCOCc1ccc(C(=O)N[C@H]2CCC[C@@H](n3cc(F)c4cnc(-c5c[nH]c6ncc(Cl)cc56)nc43)C2)nc1` [Compound B101], the IC50 (as a rule, the concentration needed to halve the response being measured) was greater than 100 µM.

With `O=C(N[C@H]1CCC[C@@H](n2cc(F)c3cnc(-c4c[nH]c5ncc(Cl)cc45)nc32)C1)N1CCc2ccccc21` [Compound B102], the IC50 is greater than 100 µM.

On to `O=C(O)C1=C(n2cc(F)c3cnc(-c4c[nH]c5ncc(Cl)cc45)nc32)CCCC1` [Compound B103], for which the IC50 is less than 1 µM.

For `O=C(O)[C@H]1C2CCC(CC2)C1n1ccc2cnc(-c3c[nH]c4ncc(F)cc34)nc21` (stereo partly drawn) [Compound B120], the half-maximal inhibitory concentration (IC50) was less than 1 µM.

Consider `CCOC(=O)[C@H]1C2CCC(CC2)[C@@H]1n1ccc2cnc(-c3c[nH]c4ncc(F)cc34)nc21` [Compound B121], for which the IC50 fell in the range of 10 to 100 µM.

For the molecule `O=C(O)[C@H]1C2CCC(CC2)C1n1ccc2cnc(-c3c[nH]c4ncc(F)cc34)nc21` (stereo partly drawn) [Compound B122], the IC50 was 1 to 10 µM.

Regarding `O=C(O)[C@H]1C2CCC(CC2)[C@@H]1n1ccc2cnc(-c3c[nH]c4ncc(F)cc34)nc21` [Compound B123], the IC50 was 1 to 10 µM.

With `O=C(O)[C@H]1C2CCC(CC2)[C@@H]1n1ccc2cnc(-c3c[nH]c4ncc(Cl)cc34)nc21` [Compound B124], the IC50 was in the range of 1 to 10 µM.

Regarding `CCOC(=O)[C@H]1C2CCC(CC2)[C@@H]1n1cc(Cl)c2cnc(-c3cn(S(=O)(=O)c4ccc(C)cc4)c4ncc(F)cc34)nc21` [Compound B125], the IC50 was greater than 100 µM.

Turning to `CCOC(=O)[C@H]1C2CCC(CC2)[C@@H]1n1cc(Cl)c2cnc(-c3c[nH]c4ncc(F)cc34)nc21` [Compound B126], the half-maximal inhibitory concentration (IC50) is greater than 100 µM.

Take `O=C(O)[C@H]1C2CCC(CC2)[C@@H]1n1cc(Cl)c2cnc(-c3c[nH]c4ncc(F)cc34)nc21` [Compound B127]: the 50% inhibitory concentration (IC50) is less than 1 µM.

For `CCOC(=O)[C@H]1C2CCC(CC2)[C@@H]1n1ccc2cnc(-c3c[nH]c4ncc(Cl)cc34)nc21` [Compound B128], the IC50 was in the range of 10 to 100 µM.

In the case of `CCOC(=O)[C@H]1C2CCC(CC2)[C@@H]1n1cc(F)c2cnc(-c3c[nH]c4ncc(F)cc34)nc21` [Compound B129], the IC50 lay in the range of 10 to 100 µM.

As to `O=C(O)[C@H]1C2CCC(CC2)[C@@H]1n1cc(Cl)c2cnc(-c3c[nH]c4ncc(Cl)cc34)nc21` [Compound B130], the IC50 is 1 to 10 µM.

With `O=C(O)[C@H]1C2CCC(CC2)[C@@H]1n1cc(F)c2cnc(-c3c[nH]c4ncc(F)cc34)nc21` [Compound B131], the IC50 was less than 1 µM.

As for `CCOC(=O)[C@H]1C2CCC(CC2)[C@@H]1n1cc(F)c2cnc(-c3c[nH]c4ncc(Cl)cc34)nc21` [Compound B134], the IC50 was greater than 100 µM.

For the molecule `O=C(O)[C@H]1C2CCC(CC2)[C@@H]1n1cc(F)c2cnc(-c3c[nH]c4ncc(Cl)cc34)nc21` [Compound B135], the 50% inhibitory concentration (IC50) is less than 1 µM.

In the case of `O=C(O)[C@@H]1C2CCC(CC2)C1n1cc(Cl)c2cnc(-c3c[nH]c4ncc(F)cc34)nc21` (stereo partly drawn) [Compound B138], the IC50 was less than 1 µM.

Take `O=C(O)[C@@H]1C2CCC(CC2)C1n1cc(F)c2cnc(-c3c[nH]c4ncc(F)cc34)nc21` (stereo partly drawn) [Compound B139]: the IC50 lay in the range of 1 to 10 µM.

On to `O=C(O)[C@H]1C2CCC(CC2)[C@@H]1n1cc(Cl)c2cnc(-c3c[nH]c4ncccc34)nc21` [Compound B140], for which the IC50 is less than 1 µM.

As to `CNC(=O)[C@H]1C2CCC(CC2)[C@@H]1n1cc(Cl)c2cnc(-c3c[nH]c4ncc(F)cc34)nc21` [Compound B141], the IC50 fell in the range of 1 to 10 µM.

`O=C(O)[C@H]1C2CCC(CC2)[C@@H]1n1cc(-c2cccnc2)c2cnc(-c3c[nH]c4ncc(F)cc34)nc21` [Compound B142]: the IC50 was less than 1 µM.

On to `O=C(O)[C@@H]1C2CCC(CC2)[C@H]1n1cc(-c2cccc(O)c2)c2cnc(-c3c[nH]c4ncc(F)cc34)nc21` [Compound B145], for which the concentration for half-maximal inhibition (IC50) is less than 1 µM.

Take `CNC(=O)CNC(=O)[C@H]1C2CCC(CC2)[C@@H]1n1cc(Cl)c2cnc(-c3c[nH]c4ncc(F)cc34)nc21` [Compound B146]: the IC50 lay within 1 to 10 µM.

`O=C(O)[C@@H]1C2CCC(CC2)[C@H]1n1cc(-c2ccncc2)c2cnc(-c3c[nH]c4ncc(F)cc34)nc21` [Compound B147]: the IC50 lay in the range of 1 to 10 µM.

`COC(=O)N[C@H]1C2CCC(CC2)[C@@H]1n1cc(Cl)c2cnc(-c3c[nH]c4ncc(F)cc34)nc21` [Compound B149]: the IC50 fell in the range of 1 to 10 µM.

On to `O=C(O)[C@@H]1C2CCC(CC2)[C@H]1n1cc(-c2ccccc2)c2cnc(-c3c[nH]c4ncc(F)cc34)nc21` [Compound B150], for which the IC50 lay in the range of 1 to 10 µM.

With `O=C(O)[C@@H]1C2CCC(CC2)[C@H]1n1cc(C(F)(F)F)c2cnc(-c3c[nH]c4ncc(F)cc34)nc21` [Compound B151], the IC50 is less than 1 µM.

Turning to `O=C(O)[C@@H]1C2CCC(CC2)[C@H]1n1cc(C#CCC2CC2)c2cnc(-c3c[nH]c4ncc(F)cc34)nc21` [Compound B152], the IC50 was 10 to 100 µM.

In the case of `O=C(O)[C@@H]1C2CCC(CC2)[C@H]1n1cc(C#CC2CC2)c2cnc(-c3c[nH]c4ncc(F)cc34)nc21` [Compound B153], the IC50 is less than 1 µM.

Take `CCOC(=O)[C@@H]1C2CCC(CC2)[C@H]1n1cc(C#CC2CC2)c2cnc(-c3c[nH]c4ncc(F)cc34)nc21` [Compound B154]: the IC50 was in the range of 10 to 100 µM.

For `O=C(O)[C@@H]1C2CCC(CC2)[C@H]1n1cc(-c2ccc(O)cc2)c2cnc(-c3c[nH]c4ncc(F)cc34)nc21` [Compound B160], the IC50 is 1 to 10 µM.

With `O=C(O)[C@@H]1C2CCC(CC2)[C@H]1n1cc(-c2ccoc2)c2cnc(-c3c[nH]c4ncc(F)cc34)nc21` [Compound B161], the IC50 is less than 1 µM.

With `O=C(O)[C@@H]1C2CCC(CC2)[C@H]1n1cc(-c2ccsc2)c2cnc(-c3c[nH]c4ncc(F)cc34)nc21` [Compound B162], the IC50 was less than 1 µM.

Consider `Cc1cn([C@@H]2C3CCC(CC3)[C@H]2C(=O)O)c2nc(-c3c[nH]c4ncc(F)cc34)ncc12` [Compound B163], for which the IC50 is less than 1 µM.

Turning to `O=C(O)[C@@H]1C2CCC(CC2)[C@H]1n1cc(-c2ccn[nH]2)c2cnc(-c3c[nH]c4ncc(F)cc34)nc21` [Compound B164], the IC50 was less than 1 µM.

As for `O=C(O)[C@@H]1C2CCC(CC2)[C@H]1n1cc(-c2ccccc2O)c2cnc(-c3c[nH]c4ncc(F)cc34)nc21` [Compound B165], the IC50 was 1 to 10 µM.

As to `CC(=O)N[C@H]1C2CCC(CC2)[C@@H]1n1cc(Cl)c2cnc(-c3c[nH]c4ncc(F)cc34)nc21` [Compound B166], the IC50 was 10 to 100 µM.

On to `N[C@H]1C2CCC(CC2)[C@@H]1n1cc(Cl)c2cnc(-c3c[nH]c4ncc(F)cc34)nc21` [Compound B167], for which the IC50 is 1 to 10 µM.

For the molecule `CNC(=O)N[C@H]1C2CCC(CC2)[C@@H]1n1cc(Cl)c2cnc(-c3c[nH]c4ncc(F)cc34)nc21` [Compound B168], the concentration for half-maximal inhibition (IC50) was 1 to 10 µM.

With `O=C(O)[C@@H]1C2CCC(CC2)[C@H]1n1cc(-c2ccccn2)c2cnc(-c3c[nH]c4ncc(F)cc34)nc21` [Compound B169], the IC50 is less than 1 µM.

Consider `COC(=O)[C@@H]1C2CCC(CC2)[C@H]1n1cc(-c2ccccc2O)c2cnc(-c3c[nH]c4ncc(F)cc34)nc21` [Compound B170], for which the IC50 lay within 10 to 100 µM.

`CN(C)C(=O)N[C@H]1C2CCC(CC2)[C@@H]1n1cc(Cl)c2cnc(-c3c[nH]c4ncc(F)cc34)nc21` [Compound B171]: the half-maximal inhibitory concentration (IC50) lay within 1 to 10 µM.

Turning to `CC(C)(C)OC(=O)N[C@@H]1C2CCC(CC2)[C@H]1n1cc(Cl)c2cnc(-c3c[nH]c4ncc(F)cc34)nc21` [Compound B172], the IC50 is greater than 100 µM.

In the case of `COC(=O)[C@@H]1C2CCC(CC2)[C@H]1n1cc(-c2ccn[nH]2)c2cnc(-c3c[nH]c4ncc(F)cc34)nc21` [Compound B173], the IC50 was 1 to 10 µM.

`CCOC(=O)[C@@H]1C2CCC(CC2)[C@H]1n1cc(-c2cn[nH]c2)c2cnc(-c3c[nH]c4ncc(F)cc34)nc21` [Compound B174]: the IC50 is 10 to 100 µM.

Turning to `CC(C)c1cn([C@@H]2C3CCC(CC3)[C@H]2C(=O)O)c2nc(-c3c[nH]c4ncc(F)cc34)ncc12` [Compound B175], the IC50 was less than 1 µM.

In the case of `CCOC(=O)[C@@H]1C2CCC(CC2)[C@H]1n1cc(-c2ccncc2)c2cnc(-c3c[nH]c4ncc(F)cc34)nc21` [Compound B176], the IC50 was 10 to 100 µM.

Take `CCOC(=O)[C@@H]1C2CCC(CC2)[C@H]1n1cc(C(F)(F)F)c2cnc(-c3c[nH]c4ncc(F)cc34)nc21` [Compound B177]: the IC50 lay within 10 to 100 µM.

For `CCOC(=O)[C@@H]1C2CCC(CC2)[C@H]1n1cc(-c2ccc(O)cc2)c2cnc(-c3c[nH]c4ncc(F)cc34)nc21` [Compound B178], the IC50 lay within 10 to 100 µM.

On to `O=C(O)[C@@H]1C2CCC(CC2)[C@H]1n1cc(-c2cn[nH]c2)c2cnc(-c3c[nH]c4ncc(F)cc34)nc21` [Compound B179], for which the IC50 was less than 1 µM.

As to `CCOC(=O)[C@@H]1C2CCC(CC2)[C@H]1n1cc(C(C)C)c2cnc(-c3c[nH]c4ncc(F)cc34)nc21` [Compound B180], the IC50 lay within 10 to 100 µM.

`CCOC(=O)[C@@H]1C2CCC(CC2)[C@H]1n1cc(-c2cccnc2)c2cnc(-c3c[nH]c4ncc(F)cc34)nc21` [Compound B181]: the IC50 lay within 1 to 10 µM.

In the case of `CCOC(=O)[C@@H]1C2CCC(CC2)[C@H]1n1cc(-c2cccc(O)c2)c2cnc(-c3c[nH]c4ncc(F)cc34)nc21` [Compound B182], the concentration for half-maximal inhibition (IC50) was 1 to 10 µM.

Take `CCOC(=O)[C@@H]1C2CCC(CC2)[C@H]1n1cc(-c2ccsc2)c2cnc(-c3c[nH]c4ncc(F)cc34)nc21` [Compound B183]: the IC50 fell in the range of 10 to 100 µM.

As for `CCOC(=O)[C@@H]1C2CCC(CC2)[C@H]1n1cc(CCc2ccccn2)c2cnc(-c3c[nH]c4ncc(F)cc34)nc21` [Compound B184], the IC50 was in the range of 10 to 100 µM.

For the molecule `CCOC(=O)[C@H]1C2CCC(CC2)[C@@H]1n1cc(C#CCCSC)c2cnc(-c3c[nH]c4ncc(F)cc34)nc21` [Compound B185], the IC50 is greater than 100 µM.

Regarding `O=C(O)[C@@H]1C2CCC(CC2)[C@H]1n1cc(CCc2ccccn2)c2cnc(-c3c[nH]c4ncc(F)cc34)nc21` [Compound B186], the IC50 is less than 1 µM.

Consider `O=C(O)[C@@H]1C2CCC(CC2)C1n1cc(-c2ccncc2)c2cnc(-c3c[nH]c4ncc(Cl)cc34)nc21` (stereo partly drawn) [Compound B187], for which the IC50 lay in the range of 1 to 10 µM.

On to `CNC(=O)[C@@H]1C2CCC(CC2)[C@H]1n1cc(F)c2cnc(-c3c[nH]c4ncc(Cl)cc34)nc21` [Compound B188], for which the IC50 lay in the range of 1 to 10 µM.
